The assay relates to Saccharomyces cerevisiae. In words: Antifungal activity against Saccharomyces cerevisiae W303-1A at 30 mM after 48 hrs. In kind it is functional, organism-based.

In turn, “10-(1-Naphthoyloxy)phenothiabismine 5,5-dioxide” displayed an inhibition zone (IZ) of 13 mm.

In turn, “10-(Benzoyloxy)phenothiabismine 5,5-dioxide” gave an inhibition zone (IZ) of 17 mm.

In turn, “10-chlorobenzo[b][1,4]benzothiabismine 5,5-dioxide” showed an inhibition zone (IZ) of 18 mm. “10-(1,3-Dibromoazulene-2-carboxy)phenothiabismine 5,5-dioxide” gave an inhibition zone (IZ) of 12 mm.

For “10-(Azulene-1-carboxy)phenothiabismine 5,5-dioxide”, the inhibition zone (IZ) was determined as 11 mm.

In turn, “10-(p-tolyl)benzo[b][1,4]benzothiabismine 5,5-dioxide” registered an inhibition zone (IZ) of 0 mm. In turn, “10-(N-Phthalylglycyloxy)phenothiabismine 5,5-dioxide” yielded an inhibition zone (IZ) of 12 mm.

Consider “10-(Azulene-6-carboxy)phenothiabismine 5,5-dioxide”, for which the inhibition zone (IZ) turned out to be 12 mm. Substance “10-(2-Naphthoyloxy)phenothiabismine 5,5-dioxide” returned an inhibition zone (IZ) of 12 mm. As to “10-(Cinnamoyloxy)phenothiabismine 5,5-dioxide”, the inhibition zone (IZ) was 14 mm.

The substance “2,8-Dihydroxy-10-chlorophenothiabismine 5,5-dioxide” gave an inhibition zone (IZ) of 8 mm.

As for “10-Chloro-2-phenylphenothiabismine 5,5-dioxide”, the inhibition zone (IZ) was 0 mm. Then “10-(Indol-3-acetoxy)phenothiabismine 5,5-dioxide”, with 13 mm; and “10-(2-Acetoxybenzoyloxy)phenothiabismine 5,5-dioxide”, with 12 mm. “10-(Nicotinoyloxy)phenothiabismine 5,5-dioxide” registered an inhibition zone (IZ) of 14 mm. With “10-(9-Anthranoyloxy)phenothiabismine 5,5-dioxide” the figure was 14 mm; with “10-(4-Acetoxybenzoyloxy)phenothiabismine 5,5-dioxide”, 17 mm; with “10-Chloro-2-tert-butylphenothiabismine 5,5-dioxide”, 0 mm.

In turn, “10-(1,3-Dichloroazulene-2-carboxy)phenothiabismine 5,5-dioxide” had an inhibition zone (IZ) of 13 mm. “10-(4-Aminobenzoyloxy)phenothiabismine 5,5-dioxide” gave an inhibition zone (IZ) of 15 mm. In turn, “tert-butyl-[2-[tert-butyl(dimethyl)silyl]oxy-10-chloro-5,5-dioxo-benzo[b][1,4]benzothiabismin-8-yl]oxy-dimethyl-silane” gave an inhibition zone (IZ) of 0 mm. The substance “10-(Azulene-2-carboxy)phenothiabismine 5,5-dioxide” registered an inhibition zone (IZ) of 14 mm. With “10-(4-Nitrobenzoyloxy)phenothiabismine 5,5-dioxide” the figure was 17 mm.

(Values after ChEMBL document CHEMBL2375317, “Heterocyclic bismuth carboxylates based on a diphenyl sulfone scaffold: synthesis and antifungal activity against Saccharomyces cerevisiae” (Eur J Med Chem, 2013).)
